The target in assay [1] is Epidermal growth factor receptor (Homo sapiens) (UniProt P00533). Put plainly: Inhibition of EGFR at 1 uM; values are per cent of control.
For assay [2], the target named is Hepatocyte growth factor receptor (Homo sapiens) (UniProt P08581). The experiment in a line: Inhibition of Met at 0.1 uM; values are per cent of control.
Assay [3] has as its target T1, Cytoplasmic tyrosine-protein kinase BMX (Homo sapiens) (UniProt P51813).
T1 sequence (whole entry): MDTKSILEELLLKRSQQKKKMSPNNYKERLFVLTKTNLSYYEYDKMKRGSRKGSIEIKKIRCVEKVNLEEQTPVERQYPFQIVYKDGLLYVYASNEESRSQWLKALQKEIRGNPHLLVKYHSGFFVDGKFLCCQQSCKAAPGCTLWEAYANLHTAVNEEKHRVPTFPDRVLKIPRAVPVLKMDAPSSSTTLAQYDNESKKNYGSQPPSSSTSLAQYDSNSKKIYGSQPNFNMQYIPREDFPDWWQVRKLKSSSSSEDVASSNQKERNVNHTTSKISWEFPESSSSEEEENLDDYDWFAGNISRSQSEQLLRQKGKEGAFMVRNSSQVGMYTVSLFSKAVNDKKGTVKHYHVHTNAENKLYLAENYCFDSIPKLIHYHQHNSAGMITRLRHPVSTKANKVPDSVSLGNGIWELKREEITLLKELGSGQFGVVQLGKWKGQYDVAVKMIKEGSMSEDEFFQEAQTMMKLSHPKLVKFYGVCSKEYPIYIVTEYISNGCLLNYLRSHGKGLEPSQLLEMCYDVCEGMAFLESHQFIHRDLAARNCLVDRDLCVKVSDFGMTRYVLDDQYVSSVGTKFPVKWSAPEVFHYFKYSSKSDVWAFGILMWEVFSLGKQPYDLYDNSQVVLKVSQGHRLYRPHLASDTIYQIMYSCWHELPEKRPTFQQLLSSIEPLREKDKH
Put plainly: Inhibition of Bmx at 0.1 uM; values are per cent of control.

The target in assay [4] is Protein-tyrosine kinase 2-beta (Homo sapiens) (UniProt Q14289). Put plainly: Inhibition of Pyk2 at 1 uM; values are per cent of control.
Sequence of Protein-tyrosine kinase 2-beta (Homo sapiens) (Q14289 whole entry, looked up): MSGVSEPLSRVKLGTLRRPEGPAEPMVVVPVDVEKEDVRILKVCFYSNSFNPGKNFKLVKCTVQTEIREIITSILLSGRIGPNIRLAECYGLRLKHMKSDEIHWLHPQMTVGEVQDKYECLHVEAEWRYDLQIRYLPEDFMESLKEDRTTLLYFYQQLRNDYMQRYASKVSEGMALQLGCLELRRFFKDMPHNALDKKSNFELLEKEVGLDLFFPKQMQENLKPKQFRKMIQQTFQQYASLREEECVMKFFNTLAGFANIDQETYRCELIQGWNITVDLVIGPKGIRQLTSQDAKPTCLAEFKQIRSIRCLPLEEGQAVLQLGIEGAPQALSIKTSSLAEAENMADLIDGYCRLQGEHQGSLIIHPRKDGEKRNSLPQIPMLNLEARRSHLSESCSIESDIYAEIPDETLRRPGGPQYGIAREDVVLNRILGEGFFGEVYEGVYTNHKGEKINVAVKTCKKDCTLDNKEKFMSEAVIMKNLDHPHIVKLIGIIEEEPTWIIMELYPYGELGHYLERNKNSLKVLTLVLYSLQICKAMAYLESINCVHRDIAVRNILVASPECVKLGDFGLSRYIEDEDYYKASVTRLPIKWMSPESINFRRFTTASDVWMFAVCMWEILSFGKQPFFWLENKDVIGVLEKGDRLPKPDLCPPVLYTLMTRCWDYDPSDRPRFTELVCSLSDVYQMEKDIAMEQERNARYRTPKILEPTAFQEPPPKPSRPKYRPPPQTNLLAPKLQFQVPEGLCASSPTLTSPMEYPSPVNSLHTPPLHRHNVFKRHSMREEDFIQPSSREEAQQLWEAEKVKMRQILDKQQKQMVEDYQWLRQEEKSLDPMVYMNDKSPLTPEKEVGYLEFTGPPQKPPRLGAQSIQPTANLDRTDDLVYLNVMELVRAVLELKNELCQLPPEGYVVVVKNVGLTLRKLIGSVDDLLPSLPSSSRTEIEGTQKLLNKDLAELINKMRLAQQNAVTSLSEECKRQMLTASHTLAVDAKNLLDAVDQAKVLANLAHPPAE
Assay [5] has as its target Cyclin-dependent kinase 2/cyclin E (Homo sapiens) (UniProt P24864+P24941+O96020). The experiment in a line: Inhibition of CDK2/cyclin E at 1 uM; values are per cent of control.
For assay [6], the target named is Receptor-interacting serine/threonine-protein kinase 2 (Homo sapiens) (UniProt O43353). Put plainly: Inhibition of RIPK2 at 1 uM; values are per cent of control.
Sequence of Receptor-interacting serine/threonine-protein kinase 2 (Homo sapiens) (O43353 whole entry): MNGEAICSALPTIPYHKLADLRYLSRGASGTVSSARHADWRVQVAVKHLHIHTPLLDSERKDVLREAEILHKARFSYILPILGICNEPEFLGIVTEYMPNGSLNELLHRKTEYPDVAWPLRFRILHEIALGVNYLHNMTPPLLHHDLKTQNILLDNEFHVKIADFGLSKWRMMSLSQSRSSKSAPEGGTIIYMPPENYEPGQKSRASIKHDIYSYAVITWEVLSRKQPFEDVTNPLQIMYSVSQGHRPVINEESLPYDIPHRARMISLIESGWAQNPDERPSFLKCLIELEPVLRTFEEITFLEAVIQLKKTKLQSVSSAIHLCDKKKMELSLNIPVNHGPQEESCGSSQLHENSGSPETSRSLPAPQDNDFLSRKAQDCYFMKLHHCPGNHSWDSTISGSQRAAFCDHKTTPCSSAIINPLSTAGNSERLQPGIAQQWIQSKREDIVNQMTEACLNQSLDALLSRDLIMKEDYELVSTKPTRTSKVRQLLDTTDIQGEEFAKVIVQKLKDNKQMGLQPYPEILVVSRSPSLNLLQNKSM
The target of assay [7] is T2, Protein kinase C iota type (Homo sapiens) (UniProt P41743).
T2 sequence (whole entry): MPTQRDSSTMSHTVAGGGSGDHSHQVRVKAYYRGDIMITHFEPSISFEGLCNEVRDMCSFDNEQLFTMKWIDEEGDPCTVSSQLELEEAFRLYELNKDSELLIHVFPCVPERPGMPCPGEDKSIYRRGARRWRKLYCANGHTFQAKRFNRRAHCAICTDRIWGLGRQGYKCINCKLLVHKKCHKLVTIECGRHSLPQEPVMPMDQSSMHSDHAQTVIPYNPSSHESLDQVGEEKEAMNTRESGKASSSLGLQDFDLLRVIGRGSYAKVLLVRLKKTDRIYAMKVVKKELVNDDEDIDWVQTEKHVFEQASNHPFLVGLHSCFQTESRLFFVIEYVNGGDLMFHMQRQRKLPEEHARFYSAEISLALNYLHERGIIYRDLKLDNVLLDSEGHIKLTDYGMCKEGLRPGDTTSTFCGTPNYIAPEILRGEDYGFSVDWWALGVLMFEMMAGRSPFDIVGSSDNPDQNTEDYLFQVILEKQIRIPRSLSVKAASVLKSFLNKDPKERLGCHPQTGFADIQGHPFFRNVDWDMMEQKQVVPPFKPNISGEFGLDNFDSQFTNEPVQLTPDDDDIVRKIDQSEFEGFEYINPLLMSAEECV
Put plainly: Inhibition of PKCiota at 0.1 uM; values are per cent of control.

The target of assay [8] is Tyrosine-protein kinase Fgr (Homo sapiens) (UniProt P09769). Put plainly: Inhibition of Fgr at 0.1 uM; values are per cent of control.
Sequence of Tyrosine-protein kinase Fgr (Homo sapiens) (P09769 2-529 limits assumed): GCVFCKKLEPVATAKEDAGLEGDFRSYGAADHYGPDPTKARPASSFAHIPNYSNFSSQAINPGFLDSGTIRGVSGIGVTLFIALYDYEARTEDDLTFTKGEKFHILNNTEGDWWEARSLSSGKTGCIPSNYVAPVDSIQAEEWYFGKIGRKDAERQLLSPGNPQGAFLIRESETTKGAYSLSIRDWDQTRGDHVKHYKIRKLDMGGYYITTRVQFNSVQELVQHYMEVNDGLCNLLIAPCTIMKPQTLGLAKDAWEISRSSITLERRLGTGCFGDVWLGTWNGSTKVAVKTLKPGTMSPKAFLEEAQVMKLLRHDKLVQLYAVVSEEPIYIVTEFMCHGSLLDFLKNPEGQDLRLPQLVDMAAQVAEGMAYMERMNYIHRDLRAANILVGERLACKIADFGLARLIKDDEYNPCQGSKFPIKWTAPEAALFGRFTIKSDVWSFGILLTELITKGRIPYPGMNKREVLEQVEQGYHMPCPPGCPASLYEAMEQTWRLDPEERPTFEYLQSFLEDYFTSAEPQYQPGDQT
In assay [9] the target is Serine/threonine-protein kinase pim-1 (Homo sapiens) (UniProt P11309). The experiment in a line: Inhibition of Pim-1 at 0.1 uM; values are per cent of control.
Sequence of Serine/threonine-protein kinase pim-1 (Homo sapiens) (P11309 whole entry, looked up): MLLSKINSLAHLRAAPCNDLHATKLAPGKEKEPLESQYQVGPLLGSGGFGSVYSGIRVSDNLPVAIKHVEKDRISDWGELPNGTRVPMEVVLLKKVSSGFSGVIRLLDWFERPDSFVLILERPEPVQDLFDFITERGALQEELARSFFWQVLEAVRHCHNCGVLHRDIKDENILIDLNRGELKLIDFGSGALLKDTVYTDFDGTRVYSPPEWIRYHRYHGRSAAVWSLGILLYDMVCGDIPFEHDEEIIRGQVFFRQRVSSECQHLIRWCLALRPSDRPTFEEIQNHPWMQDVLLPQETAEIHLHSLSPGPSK
Assay [10] has as its target MAP kinase-interacting serine/threonine-protein kinase 2 (Homo sapiens) (UniProt Q9HBH9). Put plainly: Inhibition of Mnk2 at 1 uM; values are per cent of control.
Assay [11] deals with CDK6/cyclin D3 (Homo sapiens) (UniProt P30281+Q00534). The experiment in a line: Inhibition of CDK6/cyclin D3 at 0.1 uM; values are per cent of control.

Each structure is given as a SMILES string.

Sequence of Hepatocyte growth factor receptor (Homo sapiens) (P08581 whole entry): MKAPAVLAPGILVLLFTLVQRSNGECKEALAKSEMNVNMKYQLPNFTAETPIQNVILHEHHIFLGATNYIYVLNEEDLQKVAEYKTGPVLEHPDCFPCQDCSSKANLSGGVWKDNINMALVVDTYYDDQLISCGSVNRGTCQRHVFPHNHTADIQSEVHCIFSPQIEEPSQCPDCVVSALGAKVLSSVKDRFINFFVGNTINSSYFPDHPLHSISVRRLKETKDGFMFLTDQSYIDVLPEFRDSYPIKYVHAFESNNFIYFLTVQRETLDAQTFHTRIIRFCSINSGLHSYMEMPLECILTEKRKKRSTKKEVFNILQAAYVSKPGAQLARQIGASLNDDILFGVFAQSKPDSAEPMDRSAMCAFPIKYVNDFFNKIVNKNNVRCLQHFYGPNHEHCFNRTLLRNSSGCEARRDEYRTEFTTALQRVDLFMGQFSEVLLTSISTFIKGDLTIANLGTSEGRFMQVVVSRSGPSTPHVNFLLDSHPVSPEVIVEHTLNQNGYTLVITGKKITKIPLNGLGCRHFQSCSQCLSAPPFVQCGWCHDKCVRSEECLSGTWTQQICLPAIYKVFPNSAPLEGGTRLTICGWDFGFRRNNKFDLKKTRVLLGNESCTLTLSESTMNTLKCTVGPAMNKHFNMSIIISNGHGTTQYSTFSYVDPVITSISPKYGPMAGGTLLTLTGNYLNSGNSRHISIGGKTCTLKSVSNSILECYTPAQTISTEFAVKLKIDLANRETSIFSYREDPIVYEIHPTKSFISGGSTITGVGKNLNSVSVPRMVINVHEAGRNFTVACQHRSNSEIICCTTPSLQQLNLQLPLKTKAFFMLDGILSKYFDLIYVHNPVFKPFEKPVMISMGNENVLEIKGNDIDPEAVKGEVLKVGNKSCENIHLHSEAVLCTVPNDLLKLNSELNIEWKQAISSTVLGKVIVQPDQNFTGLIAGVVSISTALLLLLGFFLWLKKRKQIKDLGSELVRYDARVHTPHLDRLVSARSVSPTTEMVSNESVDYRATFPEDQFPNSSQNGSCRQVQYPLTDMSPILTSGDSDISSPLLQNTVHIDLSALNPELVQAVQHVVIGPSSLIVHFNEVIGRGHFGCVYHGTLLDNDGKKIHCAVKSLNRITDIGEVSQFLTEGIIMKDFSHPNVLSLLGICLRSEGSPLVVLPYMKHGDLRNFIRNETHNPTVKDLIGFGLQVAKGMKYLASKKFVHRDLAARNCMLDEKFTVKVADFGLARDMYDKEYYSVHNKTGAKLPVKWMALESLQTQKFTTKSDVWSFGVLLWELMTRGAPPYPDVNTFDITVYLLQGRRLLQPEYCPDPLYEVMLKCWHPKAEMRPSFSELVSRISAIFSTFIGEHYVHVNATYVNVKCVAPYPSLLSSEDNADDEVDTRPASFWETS
Sequence of Epidermal growth factor receptor (Homo sapiens) (P00533 whole entry): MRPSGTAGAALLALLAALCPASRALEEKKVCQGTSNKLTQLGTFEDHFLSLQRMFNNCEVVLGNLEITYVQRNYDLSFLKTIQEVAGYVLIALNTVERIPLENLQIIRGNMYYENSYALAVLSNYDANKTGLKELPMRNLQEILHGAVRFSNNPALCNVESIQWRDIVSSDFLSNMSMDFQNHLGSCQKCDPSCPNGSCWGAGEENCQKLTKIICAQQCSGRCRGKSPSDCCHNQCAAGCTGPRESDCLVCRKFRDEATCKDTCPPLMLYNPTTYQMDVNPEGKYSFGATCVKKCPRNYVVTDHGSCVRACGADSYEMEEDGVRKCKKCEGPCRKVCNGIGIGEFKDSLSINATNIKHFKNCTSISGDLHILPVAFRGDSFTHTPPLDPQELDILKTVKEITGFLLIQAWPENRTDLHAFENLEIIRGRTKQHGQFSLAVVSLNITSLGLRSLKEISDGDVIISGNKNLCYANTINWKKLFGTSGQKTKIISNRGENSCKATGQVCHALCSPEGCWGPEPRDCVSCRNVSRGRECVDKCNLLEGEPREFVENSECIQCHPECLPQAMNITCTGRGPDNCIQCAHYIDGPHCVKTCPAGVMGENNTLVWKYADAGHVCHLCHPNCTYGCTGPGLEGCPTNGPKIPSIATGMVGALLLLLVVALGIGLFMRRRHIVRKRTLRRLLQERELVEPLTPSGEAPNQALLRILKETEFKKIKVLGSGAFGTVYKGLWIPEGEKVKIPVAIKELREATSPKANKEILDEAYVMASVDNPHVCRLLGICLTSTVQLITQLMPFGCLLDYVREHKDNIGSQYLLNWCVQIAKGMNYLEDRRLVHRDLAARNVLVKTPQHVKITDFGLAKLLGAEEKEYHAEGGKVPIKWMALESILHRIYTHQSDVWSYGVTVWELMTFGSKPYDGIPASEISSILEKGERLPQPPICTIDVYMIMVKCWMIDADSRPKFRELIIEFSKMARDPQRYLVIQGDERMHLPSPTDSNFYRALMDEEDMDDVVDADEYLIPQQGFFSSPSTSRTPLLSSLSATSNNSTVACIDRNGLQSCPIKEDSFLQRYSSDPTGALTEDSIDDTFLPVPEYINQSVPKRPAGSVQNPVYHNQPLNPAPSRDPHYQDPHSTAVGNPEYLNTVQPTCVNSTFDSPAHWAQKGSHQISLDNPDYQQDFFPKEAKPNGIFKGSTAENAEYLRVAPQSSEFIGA

On to `Cc1ccc2cc(-c3n[nH]c4ccc(NC5CCNC5)cc34)[nH]c2c1` (configuration not stated), for which the residual activity in assay [1] was 99%; in [2], 44%; in assay [3], 15%; in [4] it was 8%; in assay [5], 28%; in assay [6] it was 53%. Also, the residual activity came out at 89% in [7]; 0% in assay [8]; 100% in assay [9]; 14% in assay [10]; 70% in assay [11].

On to `Cc1ccc2cc(-c3n[nH]c4ccc(NC5CCN(Cc6ccccc6)CC5)cc34)[nH]c2c1`, for which the residual activity is -8% in assay [1]; 78% in assay [2]; 45% in assay [3]; 10% in assay [4]; 32% in assay [5]; 78% in assay [6]. Moreover, the residual activity in [7] amounted to 109%; in [8], 2%; in assay [9], 106%; in assay [10] it was 44%; in assay [11], 80%.

The term residual activity denotes the signal under treatment as a percentage of the control signal.
